Data from patent publication US20250163119A1, “COMPOUNDS FOR THE TREATMENT OF DIABETES OR OBESITY” (Eli Lilly and Company, priority 2023, published 2025).
*1 amine or outer side, *2 acyl side, *3 side chain or, on linkers, in order; H or OH if unused. Where a SMILES comes first, the peptide text is derived from it. Side-chain parts run from the residue outwards. [ ]: non-standard residue; d: D form. The star is where a group is joined. C20 diacid = O=C(O)CCCCCCCCCCCCCCCCCCC(=O)*; γGlu = O=C(O)[C@H](CCC(=O)[*:2])N[*:1]; NMeI = CC[C@H](C)[C@H](NC)C(=O)O; AEEA = NCCOCCOCC(=O)O

Assay: In vivo Diet Induced Obesity (DIO) model, chronic dose administration
Set-up: species or system C57BL6 mice
Settings: DIO mice; 30 nmol/kg s.c.; pooled data from four studies; mean
Excerpt: The DIO model represents a pre-diabetic state that is obese. These animals, although not diabetic, display insulin resistance, dyslipidemia, and hepatic steatosis, all characteristics of metabolic syndrome, after being placed on a high fat (60% Kcal from fat) diet for 12 weeks (Surwit R S et al., Diet-induced type II diabetes in C57BL/6J mice. Diabetes 37(9): 1163-7 (1988)). Assessment of body weight change from start of study, fat mass change from start of study, lean mass change from start of study, and fasting glucose or glucose change from vehicle in same study substantially as set forth below. In the case of SEQ ID NO:55 combined with SEQ ID NO:25, tibialis anterior muscle weight at the end of the study is also reported as a measure of effect on muscle weight.
Male C57BL6 mice 22-24 weeks old (on high fat diet since 6 weeks of age, Jackson Laboratories 3800050; Bar Harbor, ME) are housed 1 per cage and maintained on D12492 chow (60% lard high fat diet: Research diets New Brunswick NJ) for 2 weeks in the vivarium and on a normal light cycle prior to experiment start. Animals were randomized by body weight to treatment groups using block randomization. On day 1 of experiment animals and food were weighed and recorded. Animals were separated in to two equal groups and started on separate days (data combined) to simplify the logistics of the study. Animals are given a single subcutaneous injection (s.c.) of the indicated treatment in 40 mM Tris HCl pH8.0+50 mM D-mannitol+0.02% polysorbate 80 on days 1(start), 4, 7, 10, and 13 of experiment at a volume of 10 ml/kg. […]
From study day 1 to study day 14 the animals were weighed daily prior to dose administration. […] The weight was recorded.
On Study Day 14, the animals were fasted overnight (approximately 16-18 hours) by placing them in a clean cage with a clean wire rack without food but allowed access to water, and on day 15 animals were subjected to fasting blood glucose measurement as follows; the tail of the animal was resected and a blood samples was collected and blood glucose was measured using an Accu-Chek Aviva glucose meter (Roche; Indianapolis, IN). Statistical significance ([…] vs. 0 dose; one way ANOVA Dunnett's post hoc) was calculated using GraphPad Prism software (La Jolla, Ca).
On study day 1 and study day 14 body composition was analyzed using Quantitative Nuclear Magnetic Resonance EchoMRI analyzer (EMR-166-s, EchoMRI; Houston Tx). […] Change in mass is calculated by subtraction of […].
On study day 15, following tail bleed for blood glucose, animals were sacrificed by C02 asphyxiation and the right tibialis anterior muscle was dissected. […] Weight was recorded and, in the case of relative weight, Tibialis anterior weight in milligrams was divided by body weight in grams. […]

## CC[C@H](C)[C@H](NC)C(=O)N[C@H](C(=O)N[C@@H](CC(C)C)C(=O)N[C@@H](CO)C(=O)N[C@@H](CC(C)C)C(=O)N[C@@H](CC(=O)O)C(=O)N[C@H](C(=O)N1CCC[C@H]1C(=O)N[C@H](C(=O)NCC(=O)N[C@@H](CC(C)C)C(=O)N[C@@H](CC(C)C)C(=O)N[C@@H](CCC(N)=O)C(=O)N[C@H](C(=O)N[C@@H](CC(C)C)C(=O)N[C@@H](CC(C)C)C(=O)N[C@@H](CCC(=O)O)C(=O)N[C@@H](CCC(N)=O)C(=O)N[C@@H](CCC(=O)O)C(=O)N[C@@H](CCCCN)C(=O)N[C@@H](CCC(N)=O)C(=O)N[C@@H](CCC(=O)O)C(=O)N[C@@H](CCCCN)C(=O)N[C@@H](CCC(=O)O)C(=O)N[C@@H](CCCCN)C(=O)N[C@@H](CCC(N)=O)C(=O)N[C@@H](CCC(N)=O)C(=O)N[C@@H](C)C(=O)N[C@@H](CCCCNC(=O)COCCOCCNC(=O)COCCOCCNC(=O)CC[C@H](NC(=O)CC[C@H](NC(=O)CCCCCCCCCCCCCCCCCCC(=O)O)C(=O)O)C(=O)O)C(=O)N[C@H](C(=O)N[C@@H](CC(N)=O)C(=O)N[C@@H](C)C(=O)N[C@@H](CCC(N)=O)C(=O)N[C@H](C(=O)N[C@@H](CC(C)C)C(=O)N[C@@H](C)C(=O)N[C@@H](CCC(N)=O)C(=O)N[C@H](C(N)=O)C(C)C)[C@@H](C)CC)[C@@H](C)O)[C@@H](C)CC)[C@@H](C)CC)C(C)C)C(C)C [SEQ ID NO: 54] (H-[NMeI]VLSLDVPIGLLQILLEQEKQEKEKQQAK([AEEA-AEEA-γGlu-γGlu-C20 diacid])TNAQILAQV-NH2)
  Fat mass change: -4.05 g
  body weight change: -3.75 g
  fasting blood glucose (% reduction from vehicle): 37.01%
  lean mass change: 0.60 g
